According to the supplement of paper PMC10307832:

Experiments:
Assay in all cases: relative viability (nuclei count vs DMSO), 5 days (fraction); higher = more cells survive
[1] = compound: C1/C(=C\C2=CC=CS2)/C(=O)/C(=C/C3=CC=CS3)/C1 + Cc1nc(NC(=O)N2CCC[C@H]2C(N)=O)sc1-c1ccnc(C(C)(C)C(F)(F)F)c1 [Alpelisib] (partner 2 µM)
Procedure, shortened: (§1)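 Nuclei were stained with Hoechst during a one-step fixation (final 0.05% Triton X-100, 1% formaldehyde, 1 ug/ml Hoechst) carried out 5 days after dosing, then counted on 4× images. The cells, lung cancer lines in 1536-well plates, had been dosed by pin tool the day after seeding with one drug alone or a fixed anchor-drug dose plus five library-drug doses (not always all listed) in √10 steps. Relative viability is the nuclei count in treated wells divided by that in vehicle wells, and each value is the median of duplicate plates.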

TPCA-1 + Lapatinib = compound: C1=CC(=CC=C1C2=CC(=C(S2)NC(=O)N)C(=O)N)F [TPCA-1] + CS(=O)(=O)CCNCc1ccc(-c2ccc3ncnc(Nc4ccc(OCc5cccc(F)c5)c(Cl)c4)c3c2)o1 [Lapatinib] (partner 2 µM)
Procedure, shortened: as §1

TPCA-1 + Trametinib = compound: C1=CC(=CC=C1C2=CC(=C(S2)NC(=O)N)C(=O)N)F [TPCA-1] + CC(=O)Nc1cccc(-n2c(=O)n(C3CC3)c(=O)c3c(Nc4ccc(I)cc4F)n(C)c(=O)c(C)c32)c1 [Trametinib] (partner 0.02 µM)
Procedure, shortened: as §1

[2] = compound: C1/C(=C\C2=CC=CS2)/C(=O)/C(=C/C3=CC=CS3)/C1 + O=C(c1cc(Cc2n[nH]c(=O)c3ccccc23)ccc1F)N1CCN(C(=O)C2CC2)CC1 [Olaparib] (partner 8 µM)
Procedure, shortened: as §1

| Cell Line | relative viability ([1]; first compound 0.2 µM) | relative viability ([1]; first compound 0.6325 µM) | relative viability ([1]; first compound 2 µM) | relative viability ([1]; first compound 6.325 µM) | relative viability ([1]; first compound 20 µM) | relative viability (TPCA-1 + Lapatinib; first compound 0.04 µM) | relative viability (TPCA-1 + Lapatinib; first compound 0.1265 µM) | relative viability (TPCA-1 + Lapatinib; first compound 0.4 µM) | relative viability (TPCA-1 + Lapatinib; first compound 1.265 µM) | relative viability (TPCA-1 + Lapatinib; first compound 4 µM) | relative viability (TPCA-1 + Trametinib; first compound 0.04 µM) | relative viability (TPCA-1 + Trametinib; first compound 0.1265 µM) | relative viability (TPCA-1 + Trametinib; first compound 0.4 µM) | relative viability (TPCA-1 + Trametinib; first compound 1.265 µM) | relative viability (TPCA-1 + Trametinib; first compound 4 µM) | relative viability ([2]; first compound 0.2 µM) | relative viability ([2]; first compound 0.6325 µM) | relative viability ([2]; first compound 2 µM) | relative viability ([2]; first compound 6.325 µM) | relative viability ([2]; first compound 20 µM) |
| --- | --- | --- | --- | --- | --- | --- | --- | --- | --- | --- | --- | --- | --- | --- | --- | --- | --- | --- | --- | --- |
| HCC-78 | 0.349 | 0.313 | 0.359 | 0.321 | 0.342 | 0.628 | 0.35 | 0.718 | 0.672 | 0.0936 | 0.837 | 0.677 | 0.722 | 0.78 | 0.519 | 0.794 | 0.872 | 0.906 | 0.87 | 0.81 |
| HCC-366 | 0.502 | 0.393 | 0.378 | 0.345 | 0.421 | 1.06 | 1.01 | 1.02 | 1.02 | 0.217 |  | 0.323 | 0.331 | 0.312 | 0.24 | 0.382 | 0.35 | 0.41 | 0.269 | 0.353 |
| HCC-827 | 0.903 | 0.924 | 1.02 | 0.935 | 0.98 | 0.193 | 0.198 | 0.188 | 0.166 | 0.132 | 0.545 | 0.545 | 0.527 | 0.596 | 0.421 | 0.589 | 0.582 | 0.72 | 0.646 | 0.597 |
| HOP-62 | 1.01 | 0.741 | 1.09 | 0.764 | 0.93 | 1.23 | 0.901 | 1.02 | 0.882 | 0.873 | 0.407 | 0.373 | 0.418 | 0.47 | 0.366 | 0.433 | 0.596 | 0.391 | 0.359 | 0.272 |
| IA-LM | 0.728 | 0.746 | 0.651 | 0.679 | 0.768 | 0.64 | 0.804 | 0.87 | 0.626 | 0.896 |  |  |  |  |  | 0.874 | 0.871 | 0.755 | 0.618 | 0.879 |
| LC-2-ad | 0.961 | 0.956 | 0.942 | 0.702 | 0.824 | 0.986 | 0.933 | 1.02 | 0.953 | 0.186 | 0.946 | 0.941 | 0.958 | 0.968 | 0.765 | 0.73 | 0.728 | 0.684 | 0.577 | 0.713 |
| LCLC-97TM1 | 0.255 | 0.225 | 0.272 | 0.212 | 0.248 | 1.47 | 0.719 | 1.3 | 0.852 | 0.518 | 0.208 | 0.152 | 0.163 | 0.205 | 0.204 | 0.459 | 0.389 | 0.344 | 0.275 | 0.347 |
| LCLC-103H | 1.05 | 0.926 | 1.02 | 0.73 | 0.956 |  |  |  |  |  | 0.689 | 0.671 | 0.689 | 0.725 | 0.684 | 0.738 | 0.795 | 0.739 | 0.68 | 0.722 |
| LK-2 | 0.94 | 1.02 | 0.856 | 1.13 | 0.813 | 1.11 | 0.636 | 0.879 | 0.874 | 0.419 | 0.76 | 0.535 | 0.873 | 0.659 | 0.504 | 0.769 | 0.787 | 0.765 | 0.853 | 0.753 |
| LOU-NH91 | 0.776 | 0.746 | 0.769 | 0.671 | 0.729 | 0.796 | 0.717 | 0.753 | 0.779 | 0.596 | 0.8 | 0.735 | 0.835 | 0.773 | 0.714 | 0.943 | 0.899 | 0.915 | 0.872 | 0.928 |
| LU99A | 0.499 | 0.547 | 0.545 | 0.476 | 0.454 | 1.02 | 0.872 | 1.11 | 0.81 | 0.426 | 0.66 | 0.487 | 0.553 | 0.466 | 0.284 | 0.225 | 0.255 | 0.279 | 0.222 | 0.234 |
| NCI-H441 | 0.819 | 0.832 | 0.719 | 0.578 | 0.737 |  |  |  |  |  | 0.402 | 0.405 | 0.422 | 0.459 | 0.266 | 0.556 | 0.493 | 0.532 | 0.404 | 0.569 |
| NCI-H522 |  |  |  |  |  |  |  |  |  |  | 0.872 | 0.737 | 0.901 | 0.766 | 0.6 | 0.626 | 0.643 | 0.657 | 0.625 | 0.742 |
| NCI-H1299 | 1.04 | 1.08 | 1.03 | 0.948 | 1.04 | 0.962 | 0.979 | 0.95 | 0.963 | 0.949 |  |  |  |  |  | 1.01 | 0.969 | 0.953 | 0.817 | 0.962 |
| NCI-H1563 | 0.933 | 0.912 | 0.881 | 0.93 | 1.02 | 1.08 | 0.943 | 0.919 | 0.736 | 0.795 |  |  |  |  |  |  |  |  |  |  |
| NCI-H1648 |  |  |  |  |  |  |  |  |  |  | 0.505 | 0.473 | 0.378 | 0.169 | 0.582 | 0.855 | 0.81 | 1.03 | 0.792 | 0.814 |
| NCI-H1650 |  |  |  |  |  | 0.945 | 0.713 | 0.921 | 0.791 | 0.219 | 0.662 | 0.545 | 0.602 | 0.565 | 0.655 | 0.854 | 0.793 | 0.734 | 0.69 | 0.717 |
| NCI-H1703 | 0.41 | 0.453 | 0.334 | 0.287 | 0.318 | 1.07 | 0.902 | 1.18 | 0.805 | 0.988 |  |  |  |  |  | 0.547 | 0.54 | 0.536 | 0.423 | 0.574 |
| NCI-H2342 |  |  |  |  |  |  |  |  |  |  | 0.792 | 0.685 | 0.79 | 0.829 | 0.944 | 0.392 | 0.464 | 0.454 | 0.419 | 0.435 |
| SW 900 |  |  |  |  |  |  |  |  |  |  |  |  | 0.775 | 0.909 | 0.764 | 0.752 | 0.839 | 0.87 | 0.882 | 0.99 |
